Test results published in ChEMBL document CHEMBL1806490, “Benzisothiazolones as modulators of macrophage migration inhibitory factor” (Bioorg Med Chem Lett, 2011).

molecular target: T1, Macrophage migration inhibitory factor (Homo sapiens, UniProt P14174); assay: Inhibition of human recombinant MIF tautomerase activity using 4-hydroxyphenylpyruvate as substrate; conditions: not given
T1 sequence (P14174 whole entry): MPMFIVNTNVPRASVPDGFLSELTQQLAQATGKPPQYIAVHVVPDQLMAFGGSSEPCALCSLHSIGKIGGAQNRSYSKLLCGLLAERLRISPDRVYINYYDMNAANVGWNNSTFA

Row | IC50 | Compound
1 | 6.5 µM | COc1ccc(-n2sc3ccc(F)cc3c2=O)cc1
2 | 2.3 µM | CC(=O)OCc1cccc(-n2sc3cc(F)ccc3c2=O)c1
3 | 19 µM | N#Cc1ccc2sn(-c3ccc(Cl)cc3)c(=O)c2c1
4 | 8 µM | COc1cccc(-n2sc3c(F)cccc3c2=O)c1
5 | 5.6 µM | O=c1c2cc(F)ccc2sn1-c1ccc(Cl)cc1
6 | 25 µM | COc1cccc(-n2sc3cc(F)ccc3c2=O)c1
7 | 3.1 µM | N#Cc1ccc2c(=O)n(-c3ccc(Cl)cc3)sc2c1
8 | 6.2 µM | O=c1c2cc([N+](=O)[O-])ccc2sn1-c1ccc(Cl)cc1
9 | 2.8 µM | COc1cccc(-n2sc3ccc(F)cc3c2=O)c1
10 | 7.9 µM | O=c1c2cc(Br)ccc2sn1-c1ccc(Cl)cc1
11 | 2.8 µM | O=c1c2cccc(F)c2sn1-c1ccc(Cl)cc1
12 | 5 µM | O=c1c2ccc(F)cc2sn1-c1cccc(Cl)c1
13 | 11 µM | O=c1c2ccc(Br)cc2sn1-c1ccc(Cl)cc1
14 | 4.9 µM | O=c1c2cc(F)c(F)cc2sn1-c1ccc(Cl)cc1
15 | 2.4 µM | COCc1cccc(-n2sc3cc(F)ccc3c2=O)c1
16 | 6.6 µM | O=c1c2cccc(Cl)c2sn1-c1ccc(Cl)cc1
17 | 5.6 µM | O=c1c2ccc(F)c(F)c2sn1-c1ccc(Cl)cc1
18 | 5.9 µM | O=c1c2cccc(F)c2sn1-c1cccc(O)c1

molecular target: T2, MIF/CD74 (Macrophage migration inhibitory factor and HLA-DR antigens-associated invariant chain) (Homo sapiens) (UniProt P14174+P04233); conditions: 78 nM
Description: Inhibition of human recombinant biotinylated MIF/CD74 ectodomain interaction at 78 nM by streptavidin alkaline phosphatase reporter system

Row | inhibition | Compound
19 | 49% | N#Cc1ccc(-n2sc3cc(F)ccc3c2=O)cc1

molecular target: T2, MIF/CD74 (Macrophage migration inhibitory factor and HLA-DR antigens-associated invariant chain) (Homo sapiens); conditions: 4 nM
Description: Inhibition of human recombinant biotinylated MIF/CD74 ectodomain interaction at 4 nM by streptavidin alkaline phosphatase reporter system

Row | inhibition | Compound
20 | 23% | O=c1c2ccc(O)cc2sn1-c1ccc(Cl)cc1
